Assay results: patent US4737504A, “5-fluoro-and 8-fluoro-trimetoquinol compounds and the processes for their preparation” (priority 1986, dated 1988)
Where two headings read alike, the source gives them in different places.

What was measured:
[1] = system: human platelets (epinephrine-induced serotonin secretion); assay: inhibition of epinephrine-induced serotonin secretion, human platelet-rich plasma; type: cell-based; conditions: epinephrine 1-10 μM
Protocol: (§1) The antiaggregatory and antisecretory activity on human platelets was determined by evaluating the in vitro aggregation and [^14 C]serotonin secretion in human platelet preparations. Blood was taken by venipuncture from normal human volunteers who were reported to be free of medication for at least 10 days before blood drawing. Venous blood samples were mixed with acid-citrate dextrose solution (9:1) and centrifuged at 120×g for 15 minutes at room temperature to obtain platelet-rich plasma, PRP, (Huzoor-Akbar et al., Biochem. Pharmacol., 30: 2013-2020, 1981). The PRP was transferred to polypropylene tubes and stored under an atmosphere of 8% CO2. The remaining blood was centrifuged at 1000×g for 10 minutes to obtain platelet-poor plasma. […] Platelet counts varied between 280,000 to 320,000 per cmm or were adjusted to 300,000 per cmm for the aggregation and secretion experiments. All studies were conducted within 2 hours after PRP recovery.
(§2) For aggregation studies, 0.5 ml of PRP was incubated with drug or vehicle (1-5 μl) for 1 minute at 37° C. before the initiation of aggregation with inducers. […] In all experiments, the minimum concentration of inducer (adenosine diphosphate ADP; epinephrine, E; 15S-hydroxy-11α,9α-epoxymethanoprosta-5Z,13E-dienoic acid, U46619; collagen; and arachidonic acid, AA) which caused maximal irreversible aggregation within each PRP preparation was used. Aggregation was monitored for 4 to 6 minutes after the addition of an inducer and data were presented as a percentage inhibition of either slope or maximal light transmittance changes in the presence of varying drug concentrations.
(§3) Secretion data were calculated as the net increase of serotonin released into the supernatant by each inducer and expressed as a percentage of the total radioactivity in platelets Mayo et al., Biochem. Pharmacol., 30: 2237-2241, 1981. The effect of compounds on serotonin release was expressed as the percentage of inhibition of the maximum release by each inducer and plotted against the log molar concentrations of each agent.

[2] = system: human platelets (arachidonic acid-induced serotonin secretion); assay: inhibition of arachidonic acid-induced serotonin secretion, human platelet-rich plasma; type: cell-based; conditions: arachidonic acid 100-300 μM
Protocol: as §1, §2, §3

[3] = molecular target: T1, U46619-induced contractions of rat thoracic aorta (Rattus norvegicus, UniProt P34978); assay: antagonism of U46619-induced contractions of rat thoracic aorta; type: cell-based, rat (male Sprague-Dawley); conditions: for Kb: against U46619, read-out: pKB ± SEM (converted); for ΔpD2 of U46619: pD2 (control) - pD2 (treatment); for inhibitory potency on U46619-induced contractions greater than trimetoquinol: relative to trimetoquinol 1
T1 construct: A 2-3 cm segment of thoracic aorta was excised; tissue Harlan Industries, Inc., Cumberland, IN (animals); host or cells: rat thoracic aorta, spirally cut strips
T1 sequence (P34978 1-341): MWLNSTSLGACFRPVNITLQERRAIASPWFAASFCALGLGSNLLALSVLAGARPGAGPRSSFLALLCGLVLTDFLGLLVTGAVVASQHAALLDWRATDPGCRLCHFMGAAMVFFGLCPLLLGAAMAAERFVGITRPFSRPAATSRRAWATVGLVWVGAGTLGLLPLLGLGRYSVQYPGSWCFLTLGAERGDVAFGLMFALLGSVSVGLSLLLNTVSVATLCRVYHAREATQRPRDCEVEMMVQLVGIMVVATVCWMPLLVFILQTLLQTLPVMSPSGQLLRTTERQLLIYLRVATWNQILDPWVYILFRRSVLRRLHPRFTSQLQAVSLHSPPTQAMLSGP
Protocol: The vasoconstrictive activity of U46619 (a stable thromboxane A2 agonist) on thoracic aorta tissue was determined as follows: Male Sprague-Dawley rats (Harlan Industries, Inc., Cumberland, IN) weighing between 250 and 350 gm were stunned and killed by cervical dislocation. A 2-3 cm segment of thoracic aorta was excised, cleaned of any adhering fat and connecting tissue, spirally cut into 2 matched strips, Constantine, supra. (2.0×0.3 cm). Strips were mounted in 10 ml tissue baths filled with the physiological salt solution in which 3×10^-6 M indomethaecin was present. A tension of 1 gm was applied to the strips. Responses of the tissues to drugs were monitored via Grass FT-03 isometric force transducers connected to a Grass Model 7C polygraph (Grass Instruments Co., Quincy, MA).
Some experiments were done in the absence of indomethacin. Concentration-dependent responses to U46619 were constructed in each preparation as described by Van Rossum, supra.
Effective concentration-50 (EC50) values of the agonists were determined graphically from individual plots of percent response versus log concentration. The potency of each agonist was expressed as a pD2 value where pD2 is equal to the negative logarithm of the experimentally determined EC50 value.
Antagonists were quantitated by calculating their pKB or pA2 values according to the methods of Furchgott, Ann. N.Y. Acad. Sci., 139: 553-570 (1967) and Arunlakshana et al., Br. J. Pharmacol., 14: 48-58 (1959). The pKB value is equivalent to the -log of [I]/(CR-1), where pKB is the negative logarithm of the apparent dissociation constant of the antagonist (KB), [I] is the concentration of the antagonist, and CR is the concentration ratio of the agonist EC50 in the presence of antagonist to the agonist EC50 in the absence of antagonist. To determine significant differences between pD2, pKB or pA2 values, a 5% level of significance was used. Arunlakshana plots were analyzed by computer according to the method of Tallarida et al., Manual of Pharmacological Calculations With Computer Programs, 29-31, (1981).

[4] = read-out: IC50 serotonin secretion
[5] = read-out: pIC50 serotonin secretion (converted)

Structure (SMILES) | IC50 [1, 4] [µM] | IC50 [1, 5] [µM] | IC50 [2, 4] [µM] | IC50 [2, 5] [µM] | Kb ([3]; analog 1 × 10^-5 M) [µM] | Kb ([3]; analog 3 × 10^-5 M) [µM] | Kb ([3]; analog 3 × 10^-6 M) [µM] | pD2 of U46619 in presence of analog ([3]; analog 1 × 10^-5 M) | pD2 of U46619 in presence of analog ([3]; analog 3 × 10^-5 M) | pD2 of U46619 in presence of analog ([3]; analog 3 × 10^-6 M) | ΔpD2 of U46619 ([3]; analog 1 × 10^-5 M) | ΔpD2 of U46619 ([3]; analog 3 × 10^-5 M) | ΔpD2 of U46619 ([3]; analog 3 × 10^-6 M) | inhibitory potency on U46619-induced contractions greater than trimetoquinol [3] | Kb ([3]; analog 1 × 10^-4 M) [µM] | pD2 of U46619 in presence of analog ([3]; analog 1 × 10^-4 M) | ΔpD2 of U46619 ([3]; analog 1 × 10^-4 M)
COc1cc(CC2NCCc3cc(O)c(O)c(F)c32)cc(OC)c1OC (stereo not shown) [Compound 8-F-TMQ, 8-fluoro-trimetoquinol] | 3.5 | 3.47 | 21.9 | 21.9 | 0.251 | 0.372 | 0.38 | 6.81 ± 0.12 | 6.25 ± 0.14 | 7.20 ± 0.12 | 1.36 ± 0.12 | 1.92 ± 0.14 | 0.96 ± 0.19 | ~10 fold |  |  | 
COc1cc(CC2NCCc3c2cc(O)c(O)c3F)cc(OC)c1OC (stereo not shown) [Compound 5-F-TMQ, 5-fluoro-trimetoquinol] | 7.4 | 7.59 | 55 | 55 |  | 3.16 | 1.51 |  | 7.14 ± 0.08 | 7.69 ± 0.08 |  | 1.02 ± 0.08 | 0.48 ± 0.07 | about 2 fold | 1.74 | 6.40 ± 0.16 | 1.77 ± 0.16
